The target in the test is T1, MGDG synthase in isolated spinach chloroplast envelope membranes (Spinacia oleracea, UniProt Q9SM44).
T1 construct: envelope membranes purified from the lysate by sucrose centrifugation gradient; from tissue; host or cells: envelope membranes of chloroplasts from spinach leaves
T1 sequence (Q9SM44 99-522): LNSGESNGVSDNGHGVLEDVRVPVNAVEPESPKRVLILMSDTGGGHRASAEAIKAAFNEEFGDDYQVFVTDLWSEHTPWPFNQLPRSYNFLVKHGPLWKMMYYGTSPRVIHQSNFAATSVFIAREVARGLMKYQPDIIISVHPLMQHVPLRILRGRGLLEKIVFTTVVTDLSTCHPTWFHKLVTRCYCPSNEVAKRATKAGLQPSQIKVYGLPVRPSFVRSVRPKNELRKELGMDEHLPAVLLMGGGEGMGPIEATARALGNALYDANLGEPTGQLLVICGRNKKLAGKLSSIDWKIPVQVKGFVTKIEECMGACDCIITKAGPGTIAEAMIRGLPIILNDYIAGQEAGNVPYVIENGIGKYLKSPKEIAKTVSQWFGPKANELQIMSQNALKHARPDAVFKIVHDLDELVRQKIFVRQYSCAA
The experiment in a line: MGDG synthase activity in envelope membrane fractions isolated from spinach chloroplasts. Particulars: Table 1, obtained in the same manner as FIG. 4; read-out: Inhibitory effect on MGDG synthesis in isolated spinach chloroplast envelope membranes. The format is biochemical. The source says: All the operations have been carried out as described in the article by Maréchal, E. et al., J. Biol. Chem., 1995, 270, 5714-5722. Crude chloroplasts were obtained from 3-4 kg of spinach leaves and purified by isopycnic centrifugation using Percoll gradients. Purified intact chloroplasts have then been lysed in hypotonic medium and envelope membranes purified from the lysate by sucrose centrifugation gradient as described in the article by Douce, R. and Joyard, J., (1982) in Methods in Chloroplast Molecular Biology (Edelman, M., Hallick R and Chua N H eds), pp 239-256, Elsevier Science Publishers B.V. Amsterdam.
MGDG synthase activity was assayed as described in the article by Maréchal et al. (1995).

pIC50: −log10 of the molar value. Structures can show the parent of a compound that is named as a salt.

On to `O=C(OCCCN(Cc1ccccc1)Cc1cccc(Cl)c1)N1CCC(n2c(=O)[nH]c3ccccc32)CC1` [Compound 69, 3-(benzyl(3-chlorobenzyl)amino)propyl 4-(2-oxo-2,3-dihydro-1H-benzo[d]imidazol-1-yl)piperidine-1-carboxylate hydrochloride], for which the pIC50 was 4.52.

Turning to `O=C(OCCN(Cc1ccccc1)Cc1ccnc2ccccc12)N1CCC(n2c(=O)[nH]c3ccccc32)CC1` [Compound 57, 2-(benzyl(quinolin-4-ylmethyl)amino)ethyl 4-(2-oxo-2,3-dihydro-1H-benzo[d]imidazol-1-yl)piperidine-1-carboxylate hydrochloride], the pIC50 is 4.12.

Turning to `O=C(OCCN(Cc1ccccc1)Cc1cccc(OCc2ccccc2)c1)N1CCC(n2c(=O)[nH]c3ccccc32)CC1` [Compound 81, 2-(benzyl(3-(benzyloxy)benzyl)amino)ethyl 4-(2-oxo-2,3-dihydro-1H-benzo[d]imidazol-1-yl)piperidine-1-carboxylate], the pIC50 was 5.10.

As to `CC(C)C[C@@H](COC(=O)N1CCC(n2c(=O)[nH]c3ccccc32)CC1)N(Cc1ccccc1)Cc1ccccc1` [Compound 30, (S)-2-(dibenzylamino)-4-methylpentyl 4-(2-oxo-2,3-dihydro-1H-benzo[d]imidazol-1-yl)piperidine-1-carboxylate], the pIC50 was 4.92.

With `O=C(OCCN(Cc1ccccc1)Cc1cccc(Oc2ccccc2)c1)N1CCC(n2c(=O)[nH]c3ccccc32)CC1` [Compound 49, 2-(benzyl(3-phenoxybenzyl)amino)ethyl 4-(2-oxo-2,3-dihydro-1H-benzo[d]imidazol-1-yl)piperidine-1-carboxylate hydrochloride], the pIC50 is 5.10.

Take `O=C(OCCN(Cc1ccccc1)Cc1ccc(Br)cc1)N1CCC(n2c(=O)[nH]c3ccccc32)CC1` [Compound 40, 2-(benzyl(4-bromobenzyl)amino)ethyl 4-(2-oxo-2,3-dihydro-1H-benzo[d]imidazol-1-yl)piperidine-1-carboxylate hydrochloride]: the pIC50 is 4.82.

For the molecule `O=C(OCCN(Cc1ccccc1)Cc1ccccc1OCc1ccccc1)N1CCC(n2c(=O)[nH]c3ccccc32)CC1` [Compound 76, 2-(benzyl(2-(benzyloxy)benzyl)amino)ethyl 4-(2-oxo-2,3-dihydro-1H-benzo[d]imidazol-1-yl)piperidine-1-carboxylate], the pIC50 is 4.70.

Turning to `O=C(OCCN(Cc1ccccc1)Cc1c(F)cccc1F)N1CCC(n2c(=O)[nH]c3ccccc32)CC1` [Compound 78, 2-(benzyl(2,6-difluorobenzyl)amino)ethyl 4-(2-oxo-2,3-dihydro-1H-benzo[d]imidazol-1-yl)piperidine-1-carboxylate], the pIC50 was 5.10.

For `C[C@@H](COC(=O)N1CCC(n2c(=O)[nH]c3ccccc32)CC1)N(Cc1ccccc1)Cc1cccc(Oc2ccccc2)c1` [Compound 55, (S)-2-(benzyl(3-phenoxybenzyl)amino)propyl 4-(2-oxo-2,3-dihydro-1H-benzo[d]imidazol-1-yl)piperidine-1-carboxylate hydrochloride], the pIC50 was 4.40.

With `C[C@@H](COC(=O)N1CCC(n2c(=O)[nH]c3ccccc32)CC1)N(Cc1ccccc1)Cc1ccc([N+](=O)[O-])cc1` [Compound 36, (S)-2-(benzyl(4-nitrobenzyl)amino)propyl 4-(2-oxo-2,3-dihydro-1H-benzo[d]imidazol-1-yl)piperidine-1-carboxylate hydrochloride], the pIC50 is 4.30.

Turning to `O=C(OCCN(Cc1ccccc1)Cc1cccc(Cl)c1)N1CCC(n2c(=O)[nH]c3ccccc32)CC1` [Compound 50, 2-(benzyl(3-chlorobenzyl)amino)ethyl 4-(2-oxo-2,3-dihydro-1H-benzo[d]imidazol-1-yl)piperidine-1-carboxylate hydrochloride], the pIC50 was 5.10.

In the case of `C[C@@H](COC(=O)N1CCCC(n2c(=O)[nH]c3ccccc32)CC1)N(Cc1ccccc1)Cc1ccccc1` (stereo partly drawn) [Compound 4, (S)-2-(dibenzylamino)propyl 4-(1,2-dihydro-2-oxobenzo[d]imidazol-3-yl)azepane-1-carboxylate], the pIC50 was 3.70.

Turning to `CC(CCOC(=O)N1CCC(n2c(=O)[nH]c3ccccc32)CC1)N(Cc1ccccc1)Cc1ccccc1` (stereo not drawn) [Compound 32, 3-(dibenzylamino)butyl 4-(1,2-dihydro-2-oxobenzo[d]imidazol-3-yl)piperidine-1-carboxylate], the pIC50 was 4.46.

Consider `C[C@@H](COC(=O)N1CCC(n2c(=O)[nH]c3ccccc32)CC1)N(Cc1ccccc1)Cc1ccccn1` [Compound 64, (S)-2-(benzyl(pyridin-2-ylmethyl)amino)propyl 4-(2-oxo-2,3-dihydro-1H-benzo[d]imidazol-1-yl)piperidine-1-carboxylate hydrochloride], for which the pIC50 was 4.46.

Regarding `C[C@@H](COC(=O)N1CCC(n2c(=O)[nH]c3ccccc32)CC1)N(Cc1ccccc1)Cc1cccc2ccccc12` [Compound 62, (S)-2-(benzyl(naphthalen-1-ylmethyl)amino)propyl 4-(2-oxo-2,3-dihydro-1H-benzo[d]imidazol-1-yl)piperidine-1-carboxylate hydrochloride], the pIC50 was 4.60.

On to `COc1ccccc1CN(CCOC(=O)N1CCC(n2c(=O)[nH]c3ccccc32)CC1)Cc1ccccc1` [Compound 75, 2-(benzyl(2-methoxybenzyl)amino)ethyl 4-(2-oxo-2,3-dihydro-1H-benzo[d]imidazol-1-yl)piperidine-1-carboxylate], for which the pIC50 is 5.00.

On to `COc1cccc(CN(CCOC(=O)N2CCC(n3c(=O)[nH]c4ccccc43)CC2)Cc2ccccc2)c1` [Compound 48, 2-(benzyl(3-methoxybenzyl)amino)ethyl 4-(2-oxo-2,3-dihydro-1H-benzo[d]imidazol-1-yl)piperidine-1-carboxylate hydrochloride], for which the pIC50 is 4.82.

Turning to `C[C@@H](COC(=O)N1CCC(n2c(=O)[nH]c3ccccc32)CC1)N(Cc1ccccc1)Cc1ccc(Br)cc1` [Compound 41, (S)-2-(benzyl(4-bromobenzyl)amino)propyl 4-(2-oxo-2,3-dihydro-1H-benzo[d]imidazol-1-yl)piperidine-1-carboxylate hydrochloride], the pIC50 was 4.30.

For `COc1cccc(CN(Cc2ccccc2)[C@@H](C)COC(=O)N2CCC(n3c(=O)[nH]c4ccccc43)CC2)c1` [Compound 54, (S)-2-(benzyl(3-methoxybenzyl)amino)propyl 4-(2-oxo-2,3-dihydro-1H-benzo[d]imidazol-1-yl)piperidine-1-carboxylate hydrochloride], the pIC50 is 4.60.

Take `O=C(OC[C@@H](Cc1ccccc1)N(Cc1ccccc1)Cc1ccccc1)N1CCC(n2c(=O)[nH]c3ccccc32)CC1` [Compound 43, (R)-2-(dibenzylamino)-3-phenylpropyl 4-(1,2-dihydro-2-oxobenzo[d]imidazol-3-yl)piperidine-1-carboxylate]: the pIC50 is 5.22.

Regarding `O=C(OCCN1C(=O)c2ccccc2C1=O)N1CCC(n2c(=O)[nH]c3ccccc32)CC1` [Compound 15, 2-(1,3-dioxoisoindolin-2-yl)ethyl 4-(1,2-dihydro-2-oxobenzo[d]imidazol-3-yl)piperidine-1-carboxylate], the pIC50 is 4.35.

Regarding `O=C(OCCN(Cc1ccccc1)Cc1ccncc1)N1CCC(n2c(=O)[nH]c3ccccc32)CC1` [Compound 44, 2-(benzyl(pyridin-4-ylmethyl)amino)ethyl 4-(2-oxo-2,3-dihydro-1H-benzo[d]imidazol-1-yl)piperidine-1-carboxylate], the pIC50 is 4.35.

On to `CC(C)[C@@H](COC(=O)N1CCC(n2c(=O)[nH]c3ccccc32)CC1)N(Cc1ccccc1)Cc1ccccc1` [Compound 29, (S)-2-(dibenzylamino)-3-methylbutyl 4-(1,2-dihydro-2-oxobenzo[d]imidazol-3-yl)piperidine-1-carboxylate], for which the pIC50 is 5.10.

For `O=C(CCCN(Cc1ccccc1)Cc1ccccc1)N1CCC(n2c(=O)[nH]c3ccccc32)CC1` [Compound 24, 1-[1-(4-Dibenzylamino-butyryl)-piperidin-4-yl]-1,3-dihydro-benzoimidazol-2-one], the pIC50 was 4.60.

Turning to `O=C(OCCN(CCCc1ccccc1)Cc1ccccc1)N1CCC(n2c(=O)[nH]c3ccccc32)CC1` [Compound 46, 2-(benzyl(3-phenylpropyl)amino)ethyl 4-(2-oxo-2,3-dihydro-1H-benzo[d]imidazol-1-yl)piperidine-1-carboxylate hydrochloride], the pIC50 was 4.82.

For the molecule `O=C(OCCCN(Cc1ccccc1)Cc1ccccc1)N1CCC(n2c(=O)[nH]c3ccccc32)CC1` [Compound 10, 3-(dibenzylamino)propyl 4-(1,2-dihydro-2-oxobenzo[d]imidazol-3-yl)piperidine-1-carboxylate], the pIC50 is 4.35.

Turning to `O=C(OCCCN(Cc1ccccc1)Cc1ccnc2ccccc12)N1CCC(n2c(=O)[nH]c3ccccc32)CC1` [Compound 71, 3-(benzyl(quinolin-4-ylmethyl)amino)propyl 4-(2-oxo-2,3-dihydro-1H-benzo[d]imidazol-1-yl)piperidine-1-carboxylate hydrochloride], the pIC50 is 4.30.

Values taken from patent publication US8637496B2, “Compounds having a monogalactosyldiacylglycerol synthase inhibitory activity as herbicide or algaecide, herbicide and algaecide compositions” (Commissariat a l'Energie Atomique, priority 2007, dated 2014).
